Laboratory results published in patent US7476522B2, “Method for producing γ-linolenic acids from a ciliate culture by adding suitable precursor molecules to said culture medium” (Nutrinova Nutrition Specialties & Food Ingredients GmbH, priority 2001, dated 2009).
Where two headings read alike, the source gives them in different places.

Assays:
[1] = test system: Tetrahymena thermophila B1868VII; details: for lipid content versus standard fermentation: NaAc feed
Description: (§1) Fermentations were carried out in a 1 l fermenter (700 ml working volume), 5 l fermenter (3 l working volume) and a 13 l fermenter (10 l working volume). The fermenters were equipped as standard with a pH electrode, a pO2 electrode, an aeration ring, a stirrer shaft with disk vein agitator, feed line for acid/alkali, feed line for feeding, inoculation fittings and sampling.
(§2) Fermentation conditions were as specified in Table 2.
(§3) To determine the biomass dry matter, 5 ml of cell culture were centrifuged for 10 min at 3400 g and 4° C., the supernatant was decanted and the cell pellet was frozen at −80° C. The frozen biomass was lyophilized and the weight of the biomass dry matter was determined.
(§4) The cell density was determined using the CASY 1 Cell Counter+Analyser System, Model TTC, Schärfe System. For measurement, the cells were diluted (1:500) in a weak CASY electrolyte solution and transported through a capillary of 150 μm diameter. The cells in a range of 15-50 μm particle size were counted.
(§5) The nonpolar lipid constituents (neutral lipids) were extracted from the biomass dry matter with n-hexane. For one batch, approximately 500 mg of biomass dry matter were stirred in 5 ml of n-hexane for 1 h at 60° C., then centrifuged for 2 min at 2700 g and the supernatant was purified by filtering off suspended matter. For the filtration, a Pasteur Pipette filled with cotton wool was used, having a fill height of approximately 1 cm. The cell residue for the first extraction was extracted a further time with 5 ml of solvent, the biomass was centrifuged off and the supernatant filtered. The purified organic phases of the two extractions were combined, the solvent was completely evaporated on a rotary evaporator and the amount of extracted lipid was determined by weighing.
(§6) The fatty acid spectrum was determined by means of a gas chromatograph (HP GC 6890) equipped with a flame ionization detector (Hewlett-Packard Company, Wilmington, USA). The column used was an FFAP (Free Fatty Acid Phase) Permbond (Macherey & Nagel GmbH, Düren). The fatty acids were identified by comparison with the retention times of fatty acid methyl ester standards. On the basis of the known concentration of the standard, the concentration of fatty acids in the samples could be determined.
(§7) 30-70 mg of the lyophilized biomass dry matter (see determination of biomass) were weighed out and were admixed with 1 ml of 20% strength methanolic HCl and 1 ml of methanolic standard solution (1 mg/ml). To liberate the fatty acids and transesterify them into fatty acid methyl esters, the samples were stirred in a closed test tube for two hours at 60° C. in a water bath and cooled to room temperature. To neutralize the sample, 1 ml of aqueous saturated sodium hydrogen carbonate solution was then added and the sample was mixed carefully. The fatty acid methyl esters were extracted by adding n-hexane. The batch was then mixed vigorously and phase separation was achieved by centrifuging for 2 min at 4300 rpm. About ⅔ of the upper organic phase was taken off and 1 μl of the sample was injected onto the GC column and analyzed (see also Table 5).
(§8) The fermentations were carried out in a 1-l fermenter containing 700 ml of MM-Var medium.

Tetrahymena = details: supplying acetate; cited from earlier work
[2] = test system: Tetrahymena thermophila B1868VII
Description: as §1, §2, §3, §4, §5, §6, §7, §8

Tetrahymena pyriformis = details: cited from earlier work
[3] = acetate added before inoculation and also during culture

Structure (SMILES): CC(=O)[O-].[Na+] [NaAc, sodium acetate]
- cell growth (cell density and BDM) [1]: adverse effect on the cell growth
- formation of GLA product by volume [1]: impaired
- NL/BDM ([1]; Feed 0.02 g/l of NaAc, 46 h): 8 %(w/w)
- NL/BDM ([1]; Feed 0.02 g/l of NaAc, 70 h): 12 %(w/w)
- NL/BDM ([1]; Feed 0.4 g/l of NaAc, 46 h): 9 %(w/w)
- NL/BDM ([1]; Feed 0.4 g/l of NaAc, 70 h): 13 %(w/w)
- GLA content of the biomass dry matter ([1]; NaAc fed during culturing): unchanged
- lipid content versus standard fermentation ([1]; after 70 h): no significant increase
- lipid content versus standard fermentation ([1]; culture time 46 h): no difference
- composition of the fatty acids (Tetrahymena): not changed
- cell growth (cell density and biomass dry matter) [2]: adversely affected cell growth
- formation of GLA product by volume [2]: decreased
- GLA content of the biomass dry matter ([2]; 0.5 and 1.0 g/l NaAc in basal medium): not altered
- NL/BDM ([2]; MM-VAR containing 0.5 g/l of NaAc, 46 h): 8 %(w/w)
- NL/BDM ([2]; MM-VAR containing 0.5 g/l of NaAc, 70 h): 17 %(w/w)
- NL/BDM ([2]; MM-VAR containing 1.0 g/l of NaAc, 46 h): 11 %(w/w)
- NL/BDM ([2]; MM-VAR containing 1.0 g/l of NaAc, 70 h): 17 %(w/w)
- GLA content in the neutral lipid versus standard fermentation ([2]; NaAc added to MM-Var basal medium): only slight differences
- NL content ([2]; NaAc added to MM-Var basal medium, after 70 h, standard […]%): 17 % (w/w)
- lipid content versus standard fermentation ([2]; NaAc in basal medium, culture time 46 h): no significant difference
- GLA yield overall [2, 3]: impairment
- fatty acid spectrum and GLA content of the biomass [2, 3]: no marked change
- growth [2, 3]: poorer growth
- cell count (Tetrahymena pyriformis; 0.1% acetate added to basal medium which does not contain glucose, […]10^5 without): 1.6×10^5 cells per ml
- cell count (Tetrahymena pyriformis; acetate, basal medium which contains glucose, 1.85×10^5 without): 1.9×10^5 cells per ml
